Test results reported in the NIST ThermoML archive (doi:10.1016/j.jct.2019.05.021).
Numbers after ± are expanded uncertainties.

Key:
[1] = 100 kPa, Liquid; for viscosity: Falling or rolling sphere viscometry; for mass density: Vibrating tube method
[2] = xn = mol fraction of the nth substance listed; conditions: 100 kPa, Liquid, x1 = 1; for viscosity: Falling or rolling sphere viscometry; for mass density: Vibrating tube method

SMILES | viscosity ([1]; 293.15 K) [mPa·s] | mass density ([1]; 293.15 K) [kg/m3] | viscosity ([1]; 298.15 K) [mPa·s] | mass density ([1]; 298.15 K) [kg/m3] | viscosity ([1]; 303.15 K) [mPa·s] | mass density ([1]; 303.15 K) [kg/m3] | viscosity ([1]; 308.15 K) [mPa·s] | mass density ([1]; 308.15 K) [kg/m3] | viscosity ([1]; 313.15 K) [mPa·s] | mass density ([1]; 313.15 K) [kg/m3] | viscosity ([1]; 318.15 K) [mPa·s] | mass density ([1]; 318.15 K) [kg/m3] | viscosity ([1]; 323.15 K) [mPa·s] | mass density ([1]; 323.15 K) [kg/m3] | viscosity ([2]; 293.15 K) [mPa·s] | mass density ([2]; 293.15 K) [kg/m3] | viscosity ([2]; 298.15 K) [mPa·s] | mass density ([2]; 298.15 K) [kg/m3] | viscosity ([2]; 303.15 K) [mPa·s] | mass density ([2]; 303.15 K) [kg/m3] | also measured
CC1CCCCC1 [methylcyclohexane] | 0.733 ± 0.016 | 769.38 ± 1.6 | 0.681 ± 0.015 | 765.06 ± 1.5 | 0.638 ± 0.014 | 760.71 ± 1.5 | 0.599 ± 0.013 | 756.35 ± 1.5 | 0.563 ± 0.012 | 751.98 ± 1.5 | 0.533 ± 0.011 | 747.59 ± 1.5 | 0.505 ± 0.011 | 743.19 ± 1.5 | – | – | – | – | – | – | –
CCCCCCCCCCCCCC(=O)OC [methyl tetradecanoate] | 4.557 ± 0.1 | 867.17 ± 1.8 | 3.979 ± 0.088 | 863.35 ± 1.8 | 3.519 ± 0.078 | 859.54 ± 1.8 | 3.093 ± 0.069 | 855.74 ± 1.7 | 2.797 ± 0.062 | 851.94 ± 1.7 | 2.544 ± 0.056 | 848.14 ± 1.7 | 2.308 ± 0.051 | 844.34 ± 1.7 | – | – | – | – | – | – | –
CC1CCCCC1 [methylcyclohexane] + CCCCCCCCCCCCCC(=O)OC | – | – | – | – | – | – | – | – | – | – | – | – | – | – | 0.733 ± 0.016 | 769.38 ± 1.6 | 0.681 ± 0.015 | 765.06 ± 1.5 | 0.638 ± 0.014 | 760.71 ± 1.5 | viscosity ([2]; 308.15 K): 0.599 ± 0.013 mPa·s; mass density ([2]; 308.15 K): 756.35 ± 1.5 kg/m3; viscosity ([2]; 313.15 K): 0.563 ± 0.012 mPa·s; mass density ([2]; 313.15 K): 751.98 ± 1.5 kg/m3; viscosity ([2]; 318.15 K): 0.533 ± 0.011 mPa·s; mass density ([2]; 318.15 K): 747.59 ± 1.5 kg/m3; viscosity ([2]; 323.15 K): 0.505 ± 0.011 mPa·s; mass density ([2]; 323.15 K): 743.19 ± 1.5 kg/m3
CC1CCCCC1 [methylcyclohexane] + CCCCCCCCCC(=O)OC | – | – | – | – | – | – | – | – | – | – | – | – | – | – | 0.733 ± 0.016 | 769.38 ± 1.6 | 0.681 ± 0.015 | 765.06 ± 1.5 | 0.638 ± 0.014 | 760.71 ± 1.5 | viscosity ([2]; 308.15 K): 0.599 ± 0.013 mPa·s; mass density ([2]; 308.15 K): 756.35 ± 1.5 kg/m3; viscosity ([2]; 313.15 K): 0.563 ± 0.012 mPa·s; mass density ([2]; 313.15 K): 751.98 ± 1.5 kg/m3; viscosity ([2]; 318.15 K): 0.533 ± 0.011 mPa·s; mass density ([2]; 318.15 K): 747.59 ± 1.5 kg/m3; viscosity ([2]; 323.15 K): 0.505 ± 0.011 mPa·s; mass density ([2]; 323.15 K): 743.19 ± 1.5 kg/m3
CCCCCCCCCCCC(=O)OC [methyl dodecanoate] | 3.151 ± 0.067 | 869.3 ± 1.7 | 2.792 ± 0.06 | 865.39 ± 1.7 | 2.504 ± 0.054 | 861.46 ± 1.7 | 2.263 ± 0.048 | 857.53 ± 1.7 | 2.049 ± 0.044 | 853.61 ± 1.7 | 1.875 ± 0.04 | 849.69 ± 1.7 | 1.729 ± 0.037 | 845.76 ± 1.7 | – | – | – | – | – | – | –
CC1CCCCC1 [methylcyclohexane] + CCCCCCCCCCCC(=O)OC | – | – | – | – | – | – | – | – | – | – | – | – | – | – | 0.733 ± 0.016 | 769.38 ± 1.6 | 0.681 ± 0.015 | 765.06 ± 1.5 | 0.638 ± 0.014 | 760.71 ± 1.5 | viscosity ([2]; 308.15 K): 0.599 ± 0.013 mPa·s; mass density ([2]; 308.15 K): 756.35 ± 1.5 kg/m3; viscosity ([2]; 313.15 K): 0.563 ± 0.012 mPa·s; mass density ([2]; 313.15 K): 751.98 ± 1.5 kg/m3; viscosity ([2]; 318.15 K): 0.533 ± 0.011 mPa·s; mass density ([2]; 318.15 K): 747.59 ± 1.5 kg/m3; viscosity ([2]; 323.15 K): 0.505 ± 0.011 mPa·s; mass density ([2]; 323.15 K): 743.19 ± 1.5 kg/m3
CCCCCCCCCC(=O)OC [methyl decanoate] | 2.125 ± 0.047 | 872.25 ± 1.8 | 1.909 ± 0.042 | 868.16 ± 1.8 | 1.738 ± 0.038 | 864.06 ± 1.8 | 1.588 ± 0.035 | 859.96 ± 1.7 | 1.453 ± 0.032 | 855.85 ± 1.7 | 1.341 ± 0.029 | 851.74 ± 1.7 | 1.245 ± 0.027 | 847.62 ± 1.7 | – | – | – | – | – | – | –
